Measurements: the NIST ThermoML archive (doi:10.1016/j.fluid.2010.11.020)
Numbers after ± are expanded uncertainties.

Settings: Liquid, Vibrating tube method

CCCCO [butan-1-ol]
Settings	mass density [kg/m3]
293.15 K, 100 kPa	809.5 ± 0.5
293.15 K, 10000 kPa	816.4 ± 0.5
293.15 K, 20000 kPa	822.9 ± 0.5
293.15 K, 30000 kPa	828.9 ± 0.6
293.15 K, 40000 kPa	834.5 ± 0.6
293.15 K, 50000 kPa	839.8 ± 0.6
293.15 K, 60000 kPa	844.7 ± 0.7
293.15 K, 70000 kPa	849.6 ± 0.7
293.15 K, 80000 kPa	854.2 ± 0.7
293.15 K, 90000 kPa	858.5 ± 0.8
293.15 K, 100000 kPa	862.9 ± 0.8
293.15 K, 110000 kPa	866.7 ± 0.8
293.15 K, 120000 kPa	870.8 ± 0.9
293.15 K, 130000 kPa	874.4 ± 0.9
293.15 K, 140000 kPa	878.1 ± 1
303.15 K, 100 kPa	802 ± 0.5
303.15 K, 10000 kPa	809.4 ± 0.5
303.15 K, 20000 kPa	816 ± 0.6
303.15 K, 30000 kPa	822.3 ± 0.6
303.15 K, 40000 kPa	828 ± 0.6
303.15 K, 50000 kPa	833.6 ± 0.6
303.15 K, 60000 kPa	838.7 ± 0.7
303.15 K, 70000 kPa	843.6 ± 0.7
303.15 K, 80000 kPa	848.3 ± 0.7
303.15 K, 90000 kPa	852.7 ± 0.8
303.15 K, 100000 kPa	857 ± 0.8
303.15 K, 110000 kPa	861.2 ± 0.9
303.15 K, 120000 kPa	865 ± 0.9
303.15 K, 130000 kPa	868.9 ± 0.9
303.15 K, 140000 kPa	872.6 ± 1
313.15 K, 100 kPa	794.1 ± 0.5
313.15 K, 10000 kPa	801.6 ± 0.5
313.15 K, 20000 kPa	809.1 ± 0.6
313.15 K, 30000 kPa	815.4 ± 0.6
313.15 K, 40000 kPa	821.4 ± 0.6
313.15 K, 50000 kPa	827.2 ± 0.6
313.15 K, 60000 kPa	832.6 ± 0.7
313.15 K, 70000 kPa	837.8 ± 0.7
313.15 K, 80000 kPa	842.6 ± 0.8
313.15 K, 90000 kPa	847.3 ± 0.8
313.15 K, 100000 kPa	851.6 ± 0.8
313.15 K, 110000 kPa	856 ± 0.9
313.15 K, 120000 kPa	860.1 ± 0.9
313.15 K, 130000 kPa	864 ± 1
313.15 K, 140000 kPa	867.9 ± 1
323.15 K, 100 kPa	786.5 ± 0.5
323.15 K, 10000 kPa	794.5 ± 0.5
323.15 K, 20000 kPa	801.7 ± 0.6
323.15 K, 30000 kPa	808.5 ± 0.6
323.15 K, 40000 kPa	815 ± 0.6
323.15 K, 50000 kPa	821 ± 0.7
323.15 K, 60000 kPa	826.5 ± 0.7
323.15 K, 70000 kPa	831.5 ± 0.7
323.15 K, 80000 kPa	836.3 ± 0.8
323.15 K, 90000 kPa	841.1 ± 0.8
323.15 K, 100000 kPa	845.8 ± 0.9
323.15 K, 110000 kPa	850.1 ± 0.9
323.15 K, 120000 kPa	854.3 ± 0.9
323.15 K, 130000 kPa	858.3 ± 1
323.15 K, 140000 kPa	862.1 ± 1
333.15 K, 100 kPa	778.3 ± 0.5
333.15 K, 10000 kPa	786.8 ± 0.5
333.15 K, 20000 kPa	794.6 ± 0.6
333.15 K, 30000 kPa	801.7 ± 0.6
333.15 K, 40000 kPa	808.4 ± 0.6
333.15 K, 50000 kPa	814.6 ± 0.7
333.15 K, 60000 kPa	820.3 ± 0.7
333.15 K, 70000 kPa	825.6 ± 0.7
333.15 K, 80000 kPa	830.8 ± 0.8
333.15 K, 90000 kPa	836 ± 0.8
333.15 K, 100000 kPa	840.5 ± 0.9
333.15 K, 110000 kPa	844.9 ± 0.9
333.15 K, 120000 kPa	849 ± 1
333.15 K, 130000 kPa	853.2 ± 1
333.15 K, 140000 kPa	857 ± 1
343.15 K, 100 kPa	769.9 ± 0.5
343.15 K, 10000 kPa	779 ± 0.5
343.15 K, 20000 kPa	787.1 ± 0.6
343.15 K, 30000 kPa	794.4 ± 0.6
343.15 K, 40000 kPa	801.3 ± 0.6
343.15 K, 50000 kPa	807.8 ± 0.7
343.15 K, 60000 kPa	813.6 ± 0.7
343.15 K, 70000 kPa	819.3 ± 0.8
343.15 K, 80000 kPa	824.6 ± 0.8
343.15 K, 90000 kPa	829.5 ± 0.8
343.15 K, 100000 kPa	834.4 ± 0.9
343.15 K, 110000 kPa	838.9 ± 0.9
343.15 K, 120000 kPa	843.3 ± 1
343.15 K, 130000 kPa	847.5 ± 1
343.15 K, 140000 kPa	851.6 ± 1.1
353.15 K, 100 kPa	760.9 ± 0.5
353.15 K, 10000 kPa	770.6 ± 0.5
353.15 K, 20000 kPa	779.2 ± 0.6
353.15 K, 30000 kPa	787.1 ± 0.6
353.15 K, 40000 kPa	794.3 ± 0.6
353.15 K, 50000 kPa	800.9 ± 0.7
353.15 K, 60000 kPa	807.7 ± 0.7
353.15 K, 70000 kPa	813.2 ± 0.8
353.15 K, 80000 kPa	818.9 ± 0.8
353.15 K, 90000 kPa	823.9 ± 0.9
353.15 K, 100000 kPa	828.8 ± 0.9
353.15 K, 110000 kPa	833.5 ± 1
353.15 K, 120000 kPa	838.1 ± 1
353.15 K, 130000 kPa	842.1 ± 1.1
353.15 K, 140000 kPa	846.5 ± 1.1
363.15 K, 100 kPa	751.9 ± 0.5
363.15 K, 10000 kPa	762.6 ± 0.5
363.15 K, 20000 kPa	771.7 ± 0.6
363.15 K, 30000 kPa	780.1 ± 0.6
363.15 K, 40000 kPa	787.4 ± 0.7
363.15 K, 50000 kPa	794.3 ± 0.7
363.15 K, 60000 kPa	800.9 ± 0.7
363.15 K, 70000 kPa	807 ± 0.8
363.15 K, 80000 kPa	812.5 ± 0.8
363.15 K, 90000 kPa	817.9 ± 0.9
363.15 K, 100000 kPa	822.9 ± 0.9
363.15 K, 110000 kPa	827.7 ± 1
363.15 K, 120000 kPa	832.4 ± 1
363.15 K, 130000 kPa	836.8 ± 1.1
363.15 K, 140000 kPa	841 ± 1.1
373.15 K, 100 kPa	742.4 ± 0.5
373.15 K, 10000 kPa	753.4 ± 0.5
373.15 K, 20000 kPa	763.3 ± 0.6
373.15 K, 30000 kPa	772.2 ± 0.6
373.15 K, 40000 kPa	780 ± 0.7
373.15 K, 50000 kPa	787.2 ± 0.7
373.15 K, 60000 kPa	793.8 ± 0.8
373.15 K, 70000 kPa	800.2 ± 0.8
373.15 K, 80000 kPa	805.8 ± 0.9
373.15 K, 90000 kPa	811.5 ± 0.9
373.15 K, 100000 kPa	817 ± 1
373.15 K, 110000 kPa	821.9 ± 1
373.15 K, 120000 kPa	826.3 ± 1.1
373.15 K, 130000 kPa	831 ± 1.1
373.15 K, 140000 kPa	835.3 ± 1.2
383.15 K, 100 kPa	732.2 ± 0.5
383.15 K, 10000 kPa	744.7 ± 0.5
383.15 K, 20000 kPa	754.6 ± 0.6
383.15 K, 30000 kPa	764.3 ± 0.6
383.15 K, 40000 kPa	772.2 ± 0.7
383.15 K, 50000 kPa	779.6 ± 0.7
383.15 K, 60000 kPa	786.6 ± 0.8
383.15 K, 70000 kPa	793.2 ± 0.8
383.15 K, 80000 kPa	799.1 ± 0.9
383.15 K, 90000 kPa	804.9 ± 0.9
383.15 K, 100000 kPa	810.3 ± 1
383.15 K, 110000 kPa	815.4 ± 1
383.15 K, 120000 kPa	820.4 ± 1.1
383.15 K, 130000 kPa	825 ± 1.1
383.15 K, 140000 kPa	829.6 ± 1.2
393.15 K, 10000 kPa	735.3 ± 0.6
393.15 K, 20000 kPa	746.4 ± 0.6
393.15 K, 30000 kPa	755.9 ± 0.6
393.15 K, 40000 kPa	764.9 ± 0.7
393.15 K, 50000 kPa	772.3 ± 0.7
393.15 K, 60000 kPa	779.6 ± 0.8
393.15 K, 70000 kPa	786.3 ± 0.8
393.15 K, 80000 kPa	792.8 ± 0.9
393.15 K, 90000 kPa	798.8 ± 0.9
393.15 K, 100000 kPa	804.3 ± 1
393.15 K, 110000 kPa	809.7 ± 1.1
393.15 K, 120000 kPa	814.7 ± 1.1
393.15 K, 130000 kPa	819.3 ± 1.2
393.15 K, 140000 kPa	823.9 ± 1.3
403.15 K, 10000 kPa	725.6 ± 0.6
403.15 K, 20000 kPa	737.3 ± 0.6
403.15 K, 30000 kPa	747.7 ± 0.6
403.15 K, 40000 kPa	756.9 ± 0.7
403.15 K, 50000 kPa	765.4 ± 0.7
403.15 K, 60000 kPa	772.8 ± 0.8
403.15 K, 70000 kPa	779.9 ± 0.9
403.15 K, 80000 kPa	786.5 ± 0.9
403.15 K, 90000 kPa	792.6 ± 1
403.15 K, 100000 kPa	798.5 ± 1
403.15 K, 110000 kPa	803.9 ± 1.1
403.15 K, 120000 kPa	809.1 ± 1.1
403.15 K, 130000 kPa	814.1 ± 1.2
403.15 K, 140000 kPa	819.3 ± 1.3
